In US20240150293A1, “SPIROCYCLOHEXANE DERIVATIVES, PHARMACEUTICAL COMPOSITIONS CONTAINING THEM AND THEIR USES AS ANTI-APOPTOTIC INHIBITORS” (LES LABORATOIRES SERVIER, priority 2021, published 2024):
Where two headings read alike, the source gives them in different places.

What was measured:
[1] = target: Cy5-labelled Mcl1 (amino acids 171-321) C286S protein (UniProtKB Q07820) (Homo sapiens (Human), UniProt Q07820, C286S); test: Inhibition of Mcl-1 by the fluorescence quenching assay (Example A, Method B); assay type: binding
How it was run: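 Cy5-labelled Mcl1 171-321 C286S (1 nM) quenched by TQ5WS-labelled PUMA peptide (10, 20 or 400 nM); displacement raises fluorescence (Ex 620/Em 680 nm). Buffer 10 mM HEPES, 150 mM NaCl, 0.05% Tween 20, pH 7.4, 5% DMSO; 2 h at room temperature, 11-point curves, IC50 converted to Ki (cKi/eKi).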

[2] = test system: H929 multiple myeloma tumor line; test: In vitro cytotoxicity, MTT assay (Example B, Method A); assay type: cell-based; details: H929 cells, 48 hours exposure, read-out: C50
Protocol: The cytotoxicity studies were carried out on the H929 multiple myeloma tumor line.
The cells are distributed onto microplates and exposed to the test compounds for 48 hours. The cell viability is then quantified by a colorimetric assay, the Microculture Tetrazolium Assay (Carmichael et al, Cancer Res. 1987, 47, 939-942).
The results are expressed in C50 which means concentration corresponding to […] of effect/inhibition.

Sequence of Cy5-labelled Mcl1 (amino acids 171-321) C286S protein (Q07820 171-321 C286S): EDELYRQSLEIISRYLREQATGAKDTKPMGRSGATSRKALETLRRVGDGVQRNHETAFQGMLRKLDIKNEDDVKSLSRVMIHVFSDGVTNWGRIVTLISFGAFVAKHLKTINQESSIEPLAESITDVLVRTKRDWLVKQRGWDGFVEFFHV

| Compound | Ki [1] [µM] | IC50 ([2]; Homo sapiens, NCI-H929, 48 h) [µM] | IC50 [2] [µM] |
| --- | --- | --- | --- |
| CC(CC1Cc2ccccc2[C@]12CC[C@@](Nc1cccc(Cl)c1)(C(=O)O)CC2)C1CCC(=O)CC1 (single isomer, unassigned) [Example 570, (1r,4r)-4-(3-chloroanilino)-2′-[2-(4-oxocyclohexyl)propyl]-2′,3′-dihydrospiro[cyclohexane-1,1′-indene]-4-carboxylic acid] | 0.363 | 30 |  |
| C[C@@H](COc1ccnc2c1C1CCC2CC1)C[C@H]1Cc2ccccc2[C@]12CC[C@@](Nc1cccc(Cl)c1)(C(=O)O)CC2 [Example 648, (1r,2′S,4S)-4-(3-chloroanilino)-2′-{(2R)-2-methyl-3-[(5,6,7,8-tetrahydro-5,8-ethanoquinolin-4-yl)oxy]propyl}-2′,3′-dihydrospiro[cyclohexane-1,1′-indene]-4-carboxylic acid] | 0.018 | 0.79 |  |
| CC(CC1Cc2ccccc2[C@]12CC[C@@](Nc1cccc(Cl)c1)(C(=O)O)CC2)C1CCC(=O)CC1 (single isomer, unassigned) [Example 571, (1r,4r)-4-(3-chloroanilino)-2′-[2-(4-oxocyclohexyl)propyl]-2′,3′-dihydrospiro[cyclohexane-1,1′-indene]-4-carboxylic acid] | 0.107 |  | 30 |
| O=C(O)[C@]1(Nc2cccc(Cl)c2)CC[C@@]2(CC1)c1ccccc1CC2CC(COc1ccnc2ccsc12)Cc1ccccc1 (single isomer, unassigned) [Example 563, (1r,4r)-2′-{2-benzyl-3-[(thieno[3,2-b]pyridin-7-yl)oxy]propyl}-4-(3-chloroanilino)-2′,3′-dihydrospiro[cyclohexane-1,1′-indene]-4-carboxylic acid] | 0.0435 |  | 3.95 |
| C[C@@H](COc1ccnc2c1C(OC(F)F)CCC2)C[C@H]1Cc2ccccc2[C@]12CC[C@@](Nc1cccc(Cl)c1)(C(=O)O)CC2 (stereo partly drawn) [Example 691, (1r,2′S,4S)-4-(3-chloroanilino)-2′-[(2R)-3-{[5-(difluoromethoxy)-5,6,7,8-tetrahydroquinolin-4-yl]oxy}-2-methylpropyl]-2′,3′-dihydrospiro[cyclohexane-1,1′-indene]-4-carboxylic acid] | 0.0109 | 0.806 |  |
| C[C@@H]1CCCc2nccc(OCC(CC3=Cc4ccccc4[C@]34CC[C@@](Nc3cccc(Cl)c3)(C(=O)O)CC4)C(F)F)c21 (single isomer, unassigned) [Example 516] | 0.028 |  | 3.86 |
| C[C@@H](COc1ccnc2c1[C@@H](C)C(F)(F)CC2)C[C@H]1Cc2ccccc2[C@]12CC[C@@](Nc1cccc(Cl)c1)(C(=O)O)CC2 [Example 701, (1r,2′S,4S)-4-(3-chloroanilino)-2′-[(2R)-3-{[(5R)-6,6-difluoro-5-methyl-5,6,7,8-tetrahydroquinolin-4-yl]oxy}-2-methylpropyl]-2′,3′-dihydrospiro[cyclohexane-1,1′-indene]-4-carboxylic acid] | 0.0285 | 1.56 |  |
| C[C@@H](COc1ccnc2c1[C@@H](C)CC[C@@H]2C)C[C@H]1Cc2ccccc2[C@]12CC[C@@](Nc1cccc(Cl)c1)(C(=O)O)CC2 [Example 661, (1r,2′S,4S)-4-(3-chloroanilino)-2′-[(2R)-3-{[(5S,8S)-5,8-dimethyl-5,6,7,8-tetrahydroquinolin-4-yl]oxy}-2-methylpropyl]-2′,3′-dihydrospiro[cyclohexane-1,1′-indene]-4-carboxylic acid] | 0.0807 | 4.97 |  |
| CC1CCCc2nccc(NC[C@H](C)C[C@H]3Cc4ccccc4[C@]34CC[C@@](Nc3cccc(Cl)c3)(C(=O)O)CC4)c21 (stereo partly drawn) [Example 655, (1r,2′S,4S)-4-(3-chloroanilino)-2′-{(2R)-2-methyl-3-[(5-methyl-5,6,7,8-tetrahydroquinolin-4-yl)amino]propyl}-2′,3′-dihydrospiro[cyclohexane-1,1′-indene]-4-carboxylic acid] | 0.0509 | 8.42 |  |
| C[C@@H]1CCCc2nccc(OCC(CC3Cc4ccccc4[C@]34CC[C@@](Nc3cccc(Cl)c3)(C(=O)O)CC4)C(F)F)c21 (single isomer, unassigned) [Example 520] | 0.0914 |  | 10.4 |

The next compounds have a lower Ki [1] than those just listed; values first:

| Ki [1] [µM] | Compound | IC50 ([2]; Homo sapiens, NCI-H929, 48 h) [µM] | IC50 [2] [µM] |
| --- | --- | --- | --- |
| 0.000374 | CC(O)c1ccc2c(c1)[C@]1(CC[C@@](Nc3cccc(Cl)c3)(C(=O)O)CC1)[C@@H](C[C@@H](C)COc1ccnc3c1[C@H](C)CC[C@H]3F)C2 (single isomer, unassigned) [Example 864] |  | 0.183 |
| 0.00118 | C[C@@H](COc1ccnc2c1[C@H](C)CC=C2)C[C@H]1Cc2ccccc2[C@]12CC[C@@](Nc1cccc(Cl)c1)(C(=O)O)CC2 [Example 677, (1r,2′S,4S)-4-(3-chloroanilino)-2′-[(2R)-2-methyl-3-{[(5R)-5-methyl-5,6-dihydroquinolin-4-yl]oxy}propyl]-2′,3′-dihydrospiro[cyclohexane-1,1′-indene]-4-carboxylic acid] | 0.245 |  |
| 0.00158 | C[C@@H](COc1ccnc2c1[C@H](C)CCC2)CC1Cc2c(Cl)cccc2[C@]12CC[C@@](Nc1cccc(Cl)c1)(C(=O)O)CC2 (single isomer, unassigned) [Example 741] |  | 0.132 |
| 0.000901 | C[C@@H](COc1ccnc2c1[C@H](C)CCC2)C[C@H]1Cc2ccccc2[C@]12CC[C@@](Nc1cccc(Cl)c1F)(C(=O)O)CC2 [Example 706, (1r,2′S,4S)-4-(3-chloro-2-fluoroanilino)-2′-[(2R)-2-methyl-3-{[(5R)-5-methyl-5,6,7,8-tetrahydroquinolin-4-yl]oxy}propyl]-2′,3′-dihydrospiro[cyclohexane-1,1′-indene]-4-carboxylic acid] | 0.0939 |  |
| 0.000909 | C[C@@H]1CCCc2nccc(OCC(CC3Cc4ccccc4[C@]34CC[C@@](Nc3cccc(Cl)c3)(C(=O)O)CC4)C(F)F)c21 (single isomer, unassigned) [Example 519] |  | 0.202 |
| 0.00363 | C[C@@H](COc1ccnc2c1[C@H](C)CC[C@H]2F)CC1=Cc2cc(F)ccc2[C@]12CC[C@@](Nc1cccc(Cl)c1)(C(=O)O)CC2 [Example 772, (1r,4R)-4-(3-chloroanilino)-5′-fluoro-2′-[(2R)-3-{[(5R,8R)-8-fluoro-5-methyl-5,6,7,8-tetrahydroquinolin-4-yl]oxy}-2-methylpropyl]spiro[cyclohexane-1,1′-indene]-4-carboxylic acid] | 0.126 |  |
| 0.00404 | C[C@@H](COc1ccnc2c1CCCC2)C[C@H]1Cc2ccccc2[C@]12CC[C@@](Nc1cccc(Cl)c1)(C(=O)O)CC2 [Example 645, (1r,4R)-4-(3-chloroanilino)-2′-{(2R)-2-methyl-3-[(5,6,7,8-tetrahydroquinolin-4-yl)oxy]propyl}-2′,3′-dihydrospiro[cyclohexane-1,1′-indene]-4-carboxylic acid] | 0.617 |  |
| 0.00146 | C[C@@H](COc1ccnc2c1[C@H](C)CC[C@H]2F)C[C@H]1Cc2ccccc2[C@]12CC[C@@](Nc1cccc(Cl)c1)(C(=O)O)CC2 [Example 689, (1r,2′S,4S)-4-(3-chloroanilino)-2′-[(2R)-3-{[(5R,8R)-8-fluoro-5-methyl-5,6,7,8-tetrahydroquinolin-4-yl]oxy}-2-methylpropyl]-2′,3′-dihydrospiro[cyclohexane-1,1′-indene]-4-carboxylic acid] | 0.117 |  |
| 0.000169 | CC(O)c1ccc2c(c1)[C@]1(CC[C@@](Nc3cccc(Cl)c3)(C(=O)O)CC1)C(C[C@@H](C)COc1ccnc3c1[C@H](C)CCC3)=C2 (stereo partly drawn) [Example 857, (1r,4R)-4-(3-chloroanilino)-6′-(1-hydroxyethyl)-2′-[(2R)-2-methyl-3-{[(5R)-5-methyl-5,6,7,8-tetrahydroquinolin-4-yl]oxy}propyl]spiro[cyclohexane-1,1′-indene]-4-carboxylic acid] | 0.143 |  |
| 0.000767 | CC1CC(O)c2nccc(OC[C@H](C)C[C@H]3Cc4ccccc4[C@]34CC[C@@](Nc3cccc(Cl)c3)(C(=O)O)CC4)c21 (stereo partly drawn) [Example 610, (1r,2′S,4S)-4-(3-chloroanilino)-2′-{(2R)-3-[(7-hydroxy-5-methyl-6,7-dihydro-5H-cyclopenta[b]pyridin-4-yl)oxy]-2-methylpropyl}-2′,3′-dihydrospiro[cyclohexane-1,1′-indene]-4-carboxylic acid] | 0.423 |  |
| 0.000703 | Cc1cc2c(cc1C)[C@]1(CC[C@@](Nc3cccc(Cl)c3)(C(=O)O)CC1)[C@H](C[C@@H](C)COc1ccnc3c1[C@H](C)CCC3)C2 [Example 855, (1r,2′R,4R)-4-(3-chloroanilino)-5′,6′-dimethyl-2′-[(2R)-2-methyl-3-{[(5R)-5-methyl-5,6,7,8-tetrahydroquinolin-4-yl]oxy}propyl]-2′,3′-dihydrospiro[cyclohexane-1,1′-indene]-4-carboxylic acid] | 0.0508 |  |
| 0.00323 | C[C@@H](COc1ccnc2c1[C@H](C)CCC2)C[C@H]1Cc2ccccc2[C@]12CC[C@](C(=O)O)(N1CCc3c(Cl)cccc31)CC2 [Example 713, (1r,2′S,4S)-4-(4-chloro-2,3-dihydro-1H-indol-1-yl)-2′-[(2R)-2-methyl-3-{[(5R)-5-methyl-5,6,7,8-tetrahydroquinolin-4-yl]oxy}propyl]-2′,3′-dihydrospiro[cyclohexane-1,1′-indene]-4-carboxylic acid] | 0.152 |  |
